This assay has as its system mice. The assay is described as follows: Neuropharmacological Assay (SmartCube): automated behavioral signature of compound-treated mice compared with a database of reference drug classes. The class given is in vivo. To be noted: for minimal effective dose: Mus musculus, ip, read-out: MED; for minimal effective dose / MED: minimal effective dose: dose having 45% or more total activity in SmartCube; for minimal effective dose / MED (minimal effective dose) / MED: i.p., that dose is shown; for MED (minimal effective dose): dose having 45% or more total activity in SmartCube. In short, it runs like this: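 i.p. dosing 15 min pre-test (NMP/PEG/propylene glycol vehicle); 3 doses, 3.0 mg/kg reported. Output = class-match probability per behavioural effect. Potency runs 0.3, 1, 3, 10 mpk (range adjusted as needed); MED = dose with ≥45% total activity.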

The mark [1] stands for this setting: SmartCube class probability, 3.0 mg/kg i.p., 15 min before test.
[2] abbreviates: if only one dose was tested, hydrochloride.
Where [3] appears, read: probability that activity matches this class of agents, 3.0 mg/kg i.p., 15 min before test.
[4] abbreviates: probability that activity matches this class of agents, 3.0 mg/kg i.p., 15 min before test, hydrochloride, 3 mg/kg.
Where [5] appears, read: SmartCube probability class, 3.0 mg/kg dose, i.p. 15 min before the behavioral test.
[6] abbreviates: SmartCube probability class, 3.0 mg/kg dose, i.p. 15 min before the behavioral test, hydrochloride, 3 mg/kg.
Setting [7] is: SmartCube class probability, 3.0 mg/kg i.p., 15 min before test, hydrochloride, 3 mg/kg.

The values that follow come from US20260274814A1, “THIENYL COMPOUNDS FOR THE TREATMENT OF A CENTRAL NERVOUS SYSTEM DISEASE OR DISORDER” (Coreterra Therapeutics, Inc., priority 2023, published 2026).

SMILES strings stand for the structures. Where a name gives a salt, the structure may show the parent alone. Read-outs that look alike come from different tables or passages of the source.

Regarding `NC1CCc2sc(Cl)c(Cl)c2C1` (stereo not drawn) [Compound 219, 2,3-dichloro-4,5,6,7-tetrahydrobenzothiophen-5-amine hydrochloride], the minimal effective dose (if only one dose tested) is greater than 3 mg/kg. Besides, under setting [1], the AD result was “ND (^ <4%)”, the AG result was “ND (^ <4%)”, the AN entry was “ND (^ <4%)” and the AP result is recorded as “ND (^ <4%)”. Also, under setting [1], the AX result is given as “ND (^ <4%)”, the CE result was “ND (^ <4%)”, the HL result is recorded as “ND (^ <4%)” and the MS entry is listed as “ND (^ <4%)”. Also, under setting [1], the PS entry was “ND (^ <4%)”, the SH entry is recorded as “ND (^ <4%)” and the UK result was “++ (≥24%)”.

On to `CNC1CCc2c(csc2F)C1` (single isomer, unassigned) [Compound 75, 1-fluoro-N-methyl-4,5,6,7-tetrahydro-2-benzothiophen-5-amine hydrochloride], for which the “MED (minimal effective dose)” value under setting [2] was 1 mpk. Under setting [3], the AD result was “ND (^ <4%)”, the AG result was “ND (^ <4%)”, the AN result is recorded as “ND (^ <4%)” and the CE entry is on record as “ND (^ <4%)”. Moreover, under setting [3], the HL entry was “ND (^ <4%)”, the MS result was “ND (^ <4%)”, the PS entry is “ND (^ <4%)” and the SH entry is “ND (^ <4%)”. Besides, under setting [3], the UK result is given as “ND (^ <4%)”. Moreover, under setting [4], the AP entry is “++++ (≥74%)” and the AX entry is “ND (^ <4%)”.

Turning to `CNC1Cc2scc(C(F)(F)F)c2C1` (single isomer, unassigned) [Compound 314, N-methyl-3-(trifluoromethyl)-5,6-dihydro-4H-cyclopenta[b]thiophen-5-amine hydrochloride], the minimal effective dose (if only one dose was tested) was greater than 3 mg/kg. Further, under setting [5], the AD entry is on record as “ND (^ <4%)”, the AG result is given as “ND (^ <4%)”, the AN result is on record as “ND (^ <4%)” and the CE entry is on record as “ND (^ <4%)”. Also, under setting [5], the HL result is given as “ND (^ <4%)”, the MS entry is “ND (^ <4%)”, the PS result is on record as “ND (^ <4%)” and the SH result was “ND (^ <4%)”. In addition, under setting [6], the AP entry is “ND (^ <4%)”, the AX entry is reported as “ND (^ <4%)” and the UK entry is “+ (≥4%)”.

Regarding `CNC1CCc2c(sc(Cl)c2C)C1` (single isomer, unassigned) [Compound 148, 2-chloro-N, 3-dimethyl-4,5,6,7-tetrahydrobenzothiophen-6-amine hydrochloride], under setting [1], the AG entry was “ND (^ <4%)”, the CE entry is given as “ND (^ <4%)”, the MS entry was “ND (^ <4%)” and the PS result is reported as “ND (^ <4%)”. Besides, the SH entry under setting [1] is on record as “ND (^ <4%)”. Further, under setting [7], the AD result is reported as “+++ (≥49%)”, the AN result was “ND (^ <4%)”, the AP entry is “+ (≥4%)” and the AX result is recorded as “++ (≥24%)”. Besides, under setting [7], the HL result is listed as “ND (^ <4%)” and the UK entry is given as “ND (^ <4%)”. Further, the MED (if only one dose tested) is given as 3 mpk.

`CNC1CCc2scc(C(F)(F)F)c2C1` (stereo not drawn) [Compound 140, N-methyl-3-(trifluoromethyl)-4,5,6,7-tetrahydrobenzothiophen-5-amine hydrochloride]: the minimal effective dose (if only one dose tested) came to 3 mg/kg. Also, under setting [1], the AD entry is listed as “ND (^ <4%)”, the AG result was “ND (^ <4%)”, the AN result is given as “ND (^ <4%)” and the AP result is “+ (≥4%)”. In addition, under setting [1], the AX result was “ND (^ <4%)”, the CE result is on record as “ND (^ <4%)”, the HL result is recorded as “ND (^ <4%)” and the MS entry is reported as “ND (^ <4%)”. Besides, under setting [1], the PS result is reported as “ND (^ <4%)”, the SH entry was “ND (^ <4%)” and the UK result is listed as “+++ (≥49%)”.

Regarding `CNC1CCc2c(C)sc(C)c2C1` (single isomer, unassigned) [Compound 31, N, 1,3-trimethyl-4,5,6,7-tetrahydro-2-benzothiophen-5-amine hydrochloride], the “MED (minimal effective dose)” value under setting [2] was 3.0 mpk. Also, under setting [3], the AD entry was “ND (^ <4%)”, the AG entry is on record as “ND (^ <4%)”, the AN result is listed as “ND (^ <4%)” and the CE entry is “ND (^ <4%)”. Further, under setting [3], the HL entry was “ND (^ <4%)”, the MS entry was “ND (^ <4%)”, the PS entry is “ND (^ <4%)” and the UK result was “ND (^ <4%)”. Also, under setting [4], the AP entry is “+++ (≥49%)”, the AX result was “++ (≥24%)” and the SH entry was “ND (^ <4%)”.

As to `NC1Cc2ccsc2C1` (stereo not drawn) [Compound 311, 5,6-dihydro-4H-cyclopenta[b]thiophen-5-amine hydrochloride], the minimal effective dose (if only one dose was tested) came out at 3 mg/kg. Under setting [5], the AD entry is on record as “++ (≥24%)”, the AG result is recorded as “ND (^ <4%)”, the AN result is reported as “ND (^ <4%)” and the AP result is on record as “ND (^ <4%)”. Moreover, under setting [5], the AX entry is “ND (^ <4%)”, the CE result is “ND (^ <4%)”, the HL entry is “ND (^ <4%)” and the MS result is “ND (^ <4%)”. Under setting [5], the PS result is recorded as “ND (^ <4%)”, the SH entry is “ND (^ <4%)” and the UK result is “+++ (≥49%)”.

As to `CNC1CCc2c(C(F)(F)F)csc2C1` (single isomer, unassigned) [Compound 230, N-methyl-3-(trifluoromethyl)-4,5,6,7-tetrahydrobenzothiophen-6-amine hydrochloride], the minimal effective dose (if only one dose tested) came to 3 mg/kg. Moreover, under setting [1], the AG entry is listed as “ND (^ <4%)”, the AN entry is reported as “ND (^ <4%)”, the AP entry was “ND (^ <4%)” and the AX result is “ND (^ <4%)”. Moreover, under setting [1], the CE result was “ND (^ <4%)”, the HL entry is “ND (^ <4%)”, the MS entry is “ND (^ <4%)” and the PS entry was “ND (^ <4%)”. Also, the SH entry under setting [1] was “ND (^ <4%)”. Moreover, under setting [7], the AD result was “+ (≥4%)” and the UK entry was “ND (^ <4%)”.

On to `Cl.c1cc2c(s1)CC(N1CCCC1)CC2` (single isomer, unassigned) [Compound 18, 1-(4,5,6,7-tetrahydrobenzothiophen-6-yl)pyrrolidine hydrochloride], for which the “MED (minimal effective dose)” value under setting [2] amounted to 0.3 mpk. Besides, under setting [3], the AG result is reported as “ND (^ <4%)”, the AN entry was “ND (^ <4%)”, the CE entry was “ND (^ <4%)” and the HL result is given as “ND (^ <4%)”. Further, under setting [3], the MS result is reported as “ND (^ <4%)”, the PS result is recorded as “ND (^ <4%)”, the SH result was “ND (^ <4%)” and the UK result is given as “ND (^ <4%)”. Also, under setting [4], the AD result is recorded as “++++ (≥74%)”, the AP entry was “+ (≥4%)” and the AX entry is reported as “ND (^ <4%)”.

As to `CNC1CCc2scc(CN)c2C1` (single isomer, unassigned) [Compound 236, 3-(aminomethyl)-N-methyl-4,5,6,7-tetrahydrobenzothiophen-5-amine dihydrochloride], the minimal effective dose (if only one dose tested) is greater than 3 mg/kg. In addition, under setting [1], the AD result was “ND (^ <4%)”, the AG result is “ND (^ <4%)”, the AN result was “ND (^ <4%)” and the AP entry is listed as “ND (^ <4%)”. Further, under setting [1], the AX result is on record as “ND (^ <4%)”, the CE entry is “ND (^ <4%)”, the HL result is “ND (^ <4%)” and the MS entry is given as “ND (^ <4%)”. Besides, under setting [1], the PS entry is recorded as “ND (^ <4%)” and the SH entry is listed as “ND (^ <4%)”. For the setting “SmartCube class probability, 3.0 mg/kg i.p., 15 min before test, dihydrochloride, 3 mg/kg”, the UK result was “ND (^ <4%)”.

As to `CCc1csc2c1CC(N)CC2` (single isomer, unassigned) [Compound 279, 3-ethyl-4,5,6,7-tetrahydrobenzothiophen-5-amine hydrochloride], for the setting “if only one dose was tested”, the minimal effective dose was found to be 3 mg/kg. Moreover, under setting [5], the AD result is on record as “ND (^ <4%)”, the AG entry is listed as “ND (^ <4%)”, the AN result is given as “ND (^ <4%)” and the AP result is recorded as “ND (^ <4%)”. Under setting [5], the AX result is given as “ND (^ <4%)”, the CE entry is given as “ND (^ <4%)”, the HL entry is recorded as “ND (^ <4%)” and the MS entry is given as “ND (^ <4%)”. Besides, under setting [5], the PS entry is “ND (^ <4%)” and the SH entry is recorded as “ND (^ <4%)”. Moreover, under setting [6], the UK entry was “++ (≥24%)”.

As to `Cc1csc2c1OCC(N)C2` (single isomer, unassigned) [Compound 296, 3-methyl-6,7-dihydro-5H-thieno[3,2-b]pyran-6-amine hydrochloride], under setting [5], the AD entry is recorded as “ND (^ <4%)”, the AG result is “ND (^ <4%)”, the AN result is recorded as “ND (^ <4%)” and the AX result was “ND (^ <4%)”. Besides, under setting [5], the CE result was “ND (^ <4%)”, the HL entry is given as “ND (^ <4%)”, the MS entry is recorded as “ND (^ <4%)” and the PS entry is given as “ND (^ <4%)”. The SH result under setting [5] was “ND (^ <4%)”. In addition, under setting [6], the AP result is “ND (^ <4%)” and the UK entry is on record as “+ (≥4%)”. This compound returned an MED under setting [2] greater than 3 mpk.
